Experimental data from publication PMC11222350, “Preclinical evaluation of [^18F]FP-CIT, the radiotracer targeting dopamine transporter for diagnosing Parkinson’s disease: pharmacokinetic and efficacy analysis” (EJNMMI Research, 2024).
Where “and” joins values, the source holds several entries; their conditions need not be identical. Identical values can stand only once.

How the values were obtained:
[1] = Excretion study of [^18F]FP-CIT in urine and feces of normal mice; assay type: in vivo, C57BL/6 mice
Protocol: For excretion analysis, male C57BL/6 mice (group II) were injected with 37 MBq of [^18F]FP-CIT in the same way described above. The mice were kept in separate cages for urine and feces collection at different time points (1, 2, 3, 4, 5, and 6 h after injection; n = 6 each). Six pieces of absorbent paper were placed in the cages to ensure that all urine samples were absorbed into the paper when the test animals excreted the urine. Fecal samples were collected using felt. The urine remaining in the bladder was collected using a syringe after the mice were sacrificed at the endpoints. The samples collected at each time point were measured using a dose calibrator (CRC-127R; Capintec, Florham Park, NJ, USA). Decay correction of the radioactivity indicated on the dose calibrator at the relevant time points was performed.

dopamine transporter [2] = target: T1, dopamine transporter (Rattus norvegicus, UniProt P23977); assay: Animal PET/CT imaging of [^18F]FP-CIT in the 6-OHDA-induced rat model; assay type: in vivo, Sprague–Dawley rats; conditions: for SUV of lesion site uptake: 37 MBq i.v.
T1 construct: from tissue; host or cells: striatum of living Sprague-Dawley rats (in vivo PET/CT)
T1 sequence (P23977 whole entry): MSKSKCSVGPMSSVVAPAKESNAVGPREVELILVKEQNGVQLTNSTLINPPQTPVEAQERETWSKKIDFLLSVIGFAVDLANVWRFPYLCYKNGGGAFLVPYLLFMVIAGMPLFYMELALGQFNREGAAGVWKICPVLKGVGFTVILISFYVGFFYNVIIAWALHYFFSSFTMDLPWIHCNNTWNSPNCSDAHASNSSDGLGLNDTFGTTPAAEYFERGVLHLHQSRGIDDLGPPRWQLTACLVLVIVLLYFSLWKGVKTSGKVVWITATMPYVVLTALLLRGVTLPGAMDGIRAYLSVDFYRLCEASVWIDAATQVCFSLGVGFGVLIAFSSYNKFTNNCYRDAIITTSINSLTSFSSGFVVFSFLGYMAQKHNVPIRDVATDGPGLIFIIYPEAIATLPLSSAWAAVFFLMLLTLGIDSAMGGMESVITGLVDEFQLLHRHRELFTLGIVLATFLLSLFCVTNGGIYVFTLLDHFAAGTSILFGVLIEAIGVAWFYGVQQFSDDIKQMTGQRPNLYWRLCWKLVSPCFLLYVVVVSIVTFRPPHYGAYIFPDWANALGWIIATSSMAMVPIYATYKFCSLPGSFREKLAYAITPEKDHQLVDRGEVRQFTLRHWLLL
Protocol: We induced the PD model in rats using 6-OHDA according to a previous study. Briefly, female Sprague–Dawley rats (group IV) were intraperitoneally pretreated with desipramine […] (12.5 mg/kg; 12.5 mg/mL). The rats were anesthetized with 3% isoflurane in oxygen, had their heads shaved, and were placed in a stereotactic frame. A lesion in the right striatum was induced by 6-OHDA injection (4 μg/μL, 2 μL/site in 0.2% ascorbic acid) into four coordinate sites (anterior–posterior (AP) + 1.3, + 0.4, − 0.4, and − 1.3 mm; medial–lateral (ML) − 2.6, − 3.0, − 4.2, and − 4.5 mm; and dorsal–ventral (DV) − 5.0 mm) using a 26G Hamilton syringe at a rate of 1 μL/min (n = 3). The syringe was withdrawn slowly 5 min after the injection, and the wound was sutured. The surgical procedure in the sham group was also performed in the same manner using […] in normal saline instead of 6-OHDA (n = 3). All of the rats were randomly assigned to PD and sham model groups.
To evaluate the uptake targeting efficacy in the striatum, animal PET/CT imaging of [^18F]FP-CIT was performed in the same week following the behavioral tests on the group IV 6-OHDA PD model (PD model and sham model, n = 3 per group). PET/CT images were acquired using nanoScan® PET/CT (Mediso Medical Imaging Systems, Budapest, Hungary). PET image acquisition was performed as previously described. Rats were anesthetized with 2% isoflurane in oxygen, and 37 MBq of [^18F]FP-CIT in 1 mL of saline was intravenously injected via the tail vein using a syringe pump (Pump Elite 11, Harvard Apparatus, USA) over 1 min. Dynamic PET scanning was performed for 60 min with 24 frames ([…], 3 × 60, 4 × 300, and 3 × 600 s). Image scans were acquired in the energy window of 400–600 keV. All images were reconstructed using a three-dimensional ordered subset expectation maximization (3D-OSEM) algorithm with four iterations and six subsets. For attenuation correction and anatomical reference, CT imaging was performed immediately after PET using a 50 kVp of X-ray voltage with 0.16 mAs.
To define the anatomical volumes of interest (VOIs), MR scans were obtained on a 31 cm horizontal-bore Agilent 9.4T scanner (Agilent Technologies, Santa Clara, CA, USA) using a 4-channel array mouse head surface coil following PET/CT imaging (Rapid Biomedical GmbH, Rimpar, Germany) (PD model and sham model, n = 3 each). […] The respiratory rates of the rats were monitored using an MR-compatible physiological monitoring and gating system during image acquisition (SA Instruments Inc., USA).
Each PET image was co-registered with the raw MR image to compare the regional [^18F]FP-CIT uptake in the striatum. […] The obtained uptake value, represented as the standardized uptake value (SUV), was determined for each VOI. […]

dopamine transporter [3] = target: T1, dopamine transporter; assay: Correlation between [^18F]FP-CIT PET uptake and tyrosine hydroxylase IHC; assay type: in vivo, Sprague–Dawley rats; conditions: Pearson
Protocol: After MR and PET/CT studies, group IV rats were anesthetized with 3.5% isoflurane and fixed by intracardial perfusion with 0.9% saline, followed by 4% paraformaldehyde, replacing the blood in the brain. The brains were extracted and post-fixed in 4% paraformaldehyde overnight at 4 °C. Subsequently, the samples were transferred to 30% sucrose at 4 °C until they sank to the bottom. Cryoprotected brains were embedded in optimal cutting temperature compound (Tissue-Tek; Sakura, Torrance, CA, USA) and sectioned in the coronal plane using a microtome (CM1950; Leica, Wetzlar, Germany) at a thickness of 30 μm. Free-floating brain sections were rinsed with PBS, treated with 3% hydrogen peroxide for 30 min, and then washed with PBS again. Sections were permeabilized with 0.3% Trioton-X-100 for 30 min and washed with PBS. […]
IHC slide imaging was performed using a slide scanner (MoticEasyScan Pro 6; Motic, Kowloon, Hong Kong). The intensity of TH antibody binding was quantified by delineating regions of interest (ROI) for positive lesion and intact sites on the IHC images using ImageJ software. An average of four slides for each brain sample was analyzed. […]
The correlation between [^18F]FP-CIT uptake and TH intensity was assessed, considering absolute values for each lesion and intact site in the striatum. Additionally, lesion/intact ratio values for each study were calculated and analyzed. […]

## COC(=O)[C@H]1[C@@H](c2ccc(I)cc2)C[C@@H]2CC[C@H]1N2CCCF [[^18F]FP-CIT, N-(3-fluoropropyl)-2β-carboxymethoxy-3β-(4-iodophenyl) nortropane]
[1]; 1 h, Mean ± SD of 6 mice (group II)
  Accumulated excretion radioactivity (Decay corrected): 0.03 ± 0.04 mCi
[1]; 1 h, individual mice no. 1-6 (group II), 37 MBq i.v.
  Accumulated excretion radioactivity (Decay corrected): 0.00 mCi and 0.01 mCi and 0.10 mCi and 0.03 mCi and 0.02 mCi
[1]; 2 h, Mean ± SD of 6 mice (group II)
  Accumulated excretion radioactivity (Decay corrected): 0.05 ± 0.04 mCi
[1]; 2 h, individual mice no. 1-6 (group II), 37 MBq i.v.
  Accumulated excretion radioactivity (Decay corrected): 0.07 mCi and 0.01 mCi and 0.11 mCi and 0.02 mCi and 0.05 mCi
[1]; 3 h, Mean ± SD of 6 mice (group II)
  Accumulated excretion radioactivity (Decay corrected): 0.06 ± 0.05 mCi
[1]; 3 h, individual mice no. 1-6 (group II), 37 MBq i.v.
  Accumulated excretion radioactivity (Decay corrected): 0.07 mCi and 0.01 mCi and 0.15 mCi and 0.02 mCi and 0.08 mCi and 0.05 mCi
[1]; 4 h, Mean ± SD of 6 mice (group II)
  Accumulated excretion radioactivity (Decay corrected): 0.08 ± 0.06 mCi
[1]; 4 h, individual mice no. 1-6 (group II), 37 MBq i.v.
  Accumulated excretion radioactivity (Decay corrected): 0.11 mCi and 0.01 mCi and 0.16 mCi and 0.02 mCi and 0.09 mCi and 0.08 mCi
[1]; 5 h, Mean ± SD of 6 mice (group II)
  Accumulated excretion radioactivity (Decay corrected): 0.09 ± 0.05 mCi
[1]; 5 h, individual mice no. 1-6 (group II), 37 MBq i.v.
  Accumulated excretion radioactivity (Decay corrected): 0.11 mCi and 0.04 mCi and 0.17 mCi and 0.02 mCi and 0.09 mCi and 0.08 mCi
[1]; 6 h, Mean ± SD of 6 mice (group II)
  Accumulated excretion radioactivity (Decay corrected): 0.09 ± 0.05 mCi
[1]; 6 h, individual mice no. 1-6 (group II), 37 MBq i.v.
  Accumulated excretion radioactivity (Decay corrected): 0.12 mCi and 0.04 mCi and 0.17 mCi and 0.02 mCi and 0.10 mCi
[1]; till 6 h, individual mice no. 1-6 (group II)
  Excretion ratio: 26.99% and 14.17% and 31.89% and 6.20% and 22.94% and 26.58%
Dopamine transporter [2]; intact striatum, post-injection
  time at which transient equilibrium tendency appeared in TACs: approximately 5 min
Dopamine transporter [2]; striatum lesion site
  reduction of lesion site SUV, PD group vs sham group: 55.4%
Dopamine transporter [2]; striatum lesion site, PD group (6-OHDA)
  SUV of lesion site uptake: 1.85 ± 0.13
Dopamine transporter [2]; striatum lesion site, sham group
  SUV of lesion site uptake: 4.15 ± 0.86
Dopamine transporter [3]; each lesion and intact site in the striatum, n = 12
  correlation coefficient (R) between animal PET/CT uptake and TH intensity by IHC, absolute values: 0.803
Dopamine transporter [3]; n = 6
  correlation coefficient (R) between animal PET/CT uptake and TH intensity by IHC, lesion/intact ratio values: 0.973
